Experimental data: BindingDB's records for patent US10941160 (Celgene Quanticel Research, 2021)

Biological target: Bromodomain-containing protein 4 (Homo sapiens, UniProt O60885)
Assay: In Vitro Enzyme Inhibition Assay
Description: His-tagged BRD4 was cloned, expressed and purified to homogeneity. BRD4 binding and inhibition was assessed by monitoring the interaction of biotinylated H4-tetraacetyl peptide (AnaSpec, H4K5/8/12/16(Ac), biotin-labeled) with the target using the AlphaScreen technology ([…]). […] After 20 min incubation at room temp, Alpha streptavidin donor beads and Nickel Chelate acceptor beads were added to a final concentration of 5 μg/mL.

Row | IC50 | SMILES
1 | in the range around 2750 nM | Cn1cc(-c2cccc(S(O)(O)NC3CC3)c2)c2ccccc2c1=O [US10941160, Example 6]
2 | in the range around 2750 nM | COc1ccc(-c2cn(C)c(=O)c3ccccc23)cc1S(N)(O)O [US10941160, Example 16]
3 | in the range around 2750 nM | CCNS(O)(O)c1cccc(-c2cn(C)c(=O)c3cnccc23)c1 [US10941160, Example 53]
4 | > 5000 nM | COc1ccc(-c2cn(C)c(=O)c3cnccc23)cc1S(O)(O)NCc1ccccc1 [US10941160, Example 54]
5 | > 5000 nM | Cn1cc(-c2cccc(S(N)(O)O)c2)c2ccncc2c1=O [US10941160, Example 55]
6 | > 5000 nM | COc1ccc(-c2cn(C)c(=O)c3cnccc23)cc1S(N)(O)O [US10941160, Example 56]
7 | in the range around 2750 nM | CCNS(O)(O)c1cccc(-c2cn(C)c(=O)c3cc(F)ccc23)c1 [US10941160, Example 59]
8 | < 500 nM | Cn1cc(-c2cccc(S(N)(O)O)c2)c2ccc(F)cc2c1=O [US10941160, Example 61]
9 | < 500 nM | CCS(O)(O)c1ccc(O)c(-c2cn(C)c(=O)c3ccc(-c4cnn(C)c4)cc23)c1 [US10941160, Example 80]
10 | < 500 nM | CCS(O)(O)c1ccc(OCC2CC2)c(-c2cn(C)c(=O)c3ccc(-c4cnn(C)c4)cc23)c1 [US10941160, Example 82]
11 | > 5000 nM | CCS(O)(O)c1cccc(-c2cn(C)c(=O)c(N)n2)c1 [US10941160, Example 105]
12 | > 5000 nM | CCS(O)(O)c1cccc(-c2cc(N)c(=O)n(C)c2)c1 [US10941160, Example 108]
13 | < 500 nM | CCOc1ccc(S(N)(O)O)cc1-c1ccc(=O)n(C)c1 [US10941160, Example 117]
14 | < 500 nM | Cn1cc(-c2cc(S(N)(O)O)ccc2Oc2ccc(F)cc2F)ccc1=O [US10941160, Example 118]
15 | < 500 nM | CCS(O)(O)c1ccc(Oc2ccc(F)cc2F)c(-c2cc(F)c(=O)n(C)c2)c1 [US10941160, Example 121]
16 | > 5000 nM | CCS(O)(O)c1cccc(-c2cn(C)c(=O)c3ccncc23)c1 [US10941160, Example 126]
17 | > 5000 nM | CCS(O)(O)c1cccc(-c2cn(C)c(=O)c3cncn23)c1 [US10941160, Example 133]
18 | < 500 nM | CCS(O)(O)c1ccc(OCC2CC2)c(-c2cn(C)c(=O)c3ccccc23)c1 [US10941160, Example 135]
19 | < 500 nM | Cn1cc(-c2nc(N3CCC[SH]3(=O)O)ncc2OCC2CC2)c2ccccc2c1=O [US10941160, Example 156]
20 | < 500 nM | CCS(O)(O)c1ccc(OCC2CC2)c(-c2cn(C)c(=O)c3ccc(F)cc23)c1 [US10941160, Example 174]
21 | < 500 nM | CC#CCOc1ccc(S(O)(O)CC)cc1-c1cn(C)c(=O)c2ccccc12 [US10941160, Example 185]
22 | < 500 nM | CCS(O)(O)c1ccc(NCC2CC2)c(-c2cn(C)c(=O)c3ccccc23)c1 [US10941160, Example 193]

Row | IC50 | SMILES
23 | < 500 nM | CCS(O)(O)c1ccc(NCC2CC2)c(-c2cn(C)c(=O)c3cc(F)ccc23)c1 [US10941160, Example 195]
24 | < 500 nM | CCS(O)(O)c1ccc(OCC2CC2)c(-c2cn(C)c(=O)c3ccccc23)n1 [US10941160, Example 206]
25 | < 500 nM | COc1ccc(S(O)(O)CCO)cc1-c1cn(C)c(=O)c2ccc(-c3cnn(C)c3)cc12 [US10941160, Example 208]
26 | < 500 nM | CCS(O)(O)c1ccc(OC)c(-c2cn(C)c(=O)c3ccc(-c4cn[nH]c4)cc23)c1 [US10941160, Example 210]
27 | < 500 nM | CCS(O)(O)c1ccc(OCC2CC2)c(-c2cn(C)c(=O)c3c2CCCC3)c1 [US10941160, Example 219]
28 | < 500 nM | CCCOc1ccc(S(O)(O)CC)cc1-c1cn(C)c(=O)c2cnc(-c3cnn(C)c3)nc12 [US10941160, Example 225]
29 | < 500 nM | CCS(O)(O)c1ccc(OCC2CC2)c(-c2cn(C)c(=O)c3cnc(-c4cnn(C)c4)nc23)c1 [US10941160, Example 226]
30 | < 500 nM | CCOc1ccc(S(O)(O)CC)cc1-c1cn(C)c(=O)c2cnc(-c3cnn(C)c3)nc12 [US10941160, Example 227]
31 | < 500 nM | CCS(O)(O)c1ccc(OCC2CC2)c(-c2cn(C)c(=O)c3cncnc23)c1 [US10941160, Example 232]
32 | < 500 nM | CCS(O)(O)c1ccc(OCC2CC2)c(-c2cc(C)c(=O)n(C3CC3)c2)c1 [US10941160, Example 251]
33 | < 500 nM | CCS(O)(O)c1ccc(OCC2CC2)c(-c2cn(C)c(=O)c3occc23)c1 [US10941160, Example 252]
34 | < 500 nM | CCS(O)(O)c1ccc(OCC2CC2)c(-c2cn(C)c(=O)c3sc(C(N)=O)cc23)c1 [US10941160, Example 265]
35 | < 500 nM | CCS(O)(O)c1ccc(OCC2CC2)c(-c2cn(C)c(=O)c3oc(C)cc23)c1 [US10941160, Example 270]
36 | < 500 nM | CCS(O)(O)c1ccc(OCC2CC2)c(-c2cc(Cl)c(=O)n(C)c2)c1 [US10941160, Example 272]
37 | < 500 nM | CCS(O)(O)c1ccc(OCC2CC2)c(-c2cc(F)c(=O)n(C)c2)c1 [US10941160, Example 274]
38 | < 500 nM | CCS(O)(O)c1ccc(OCC2CC2)c(-c2cc(C3CC3)c(=O)n(C)c2)c1 [US10941160, Example 280]
39 | < 500 nM | C#Cc1cc(-c2cc(S(O)(O)CC)ccc2OCC2CC2)cn(C)c1=O [US10941160, Example 284]
40 | < 500 nM | CCS(O)(O)c1ccc(OCC2CC2)c(-c2cc(OC(F)F)c(=O)n(C)c2)c1 [US10941160, Example 287]
41 | < 500 nM | CCS(O)(O)c1ccc(OCC2CC2)c(-c2cc(OCC(F)(F)F)c(=O)n(C)c2)c1 [US10941160, Example 288]
42 | < 500 nM | CCCCc1cnc(NS(O)(O)CC)nc1-c1cc(C)c(=O)n(C)c1 [US10941160, Example 310]
43 | < 500 nM | CCS(O)(O)c1cnc(OCC2CC2)c(-c2cn(C)c(=O)c3ccccc23)c1 [US10941160, Example 322]
44 | < 500 nM | CCS(O)(O)Nc1cc(Oc2ccc(F)cc2F)cc(-c2cc(C)c(=O)n(C)c2)c1 [US10941160, Example 342]

Row | IC50 | SMILES
45 | < 500 nM | CCCCc1cnc(NS(O)(O)CC)nc1-c1cc(OC)c(=O)n(C)c1 [US10941160, Example 362]
46 | < 500 nM | CC(C)S(O)(O)c1ccc(OCC2CC2)c(-c2cn(C)c(=O)c3ccccc23)c1 [US10941160, Example 364]
47 | < 500 nM | CCS(O)(O)c1ccc(OCC2CC2)c(-c2cn(C)c(=O)c3c2OCCN3)c1 [US10941160, Example 366]
48 | < 500 nM | CCS(O)(O)c1ccc(OCC2CC2)c(-c2cn(C)c(=O)c3cncn23)c1 [US10941160, Example 368]
49 | < 500 nM | CCS(O)(O)c1ccc(OC2CCC(F)(F)CC2)c(-c2cn(C)c(=O)c3cncn23)c1 [US10941160, Example 373]
50 | < 500 nM | CCS(O)(O)c1ccc(OC2CCCC2)c(-c2cn(C)c(=O)c3cncn23)c1 [US10941160, Example 374]
51 | < 500 nM | CCS(O)(O)c1ccc(NCC2CC2)c(-c2cn(C)c(=O)c3cncn23)c1 [US10941160, Example 375]
52 | < 500 nM | CCS(O)(O)c1ccc(Oc2ccc(F)cc2F)c(-c2cn(C)c(=O)c3cncn23)c1 [US10941160, Example 376]
53 | < 500 nM | CCS(O)(O)c1ccc(OCC2CC2)c(-c2cn(C)c(=O)c3ccoc23)c1 [US10941160, Example 378]
54 | < 500 nM | CC#CCOc1ccc(S(O)(O)CC)cc1-c1cc(OC)c(=O)n(C)c1 [US10941160, Example 389]
55 | < 500 nM | CCC#CCOc1ccc(S(O)(O)CC)cc1-c1cc(OC)c(=O)n(C)c1 [US10941160, Example 390]
56 | < 500 nM | CCS(O)(O)c1ccc(OCC#CC2CC2)c(-c2cc(OC)c(=O)n(C)c2)c1 [US10941160, Example 391]
57 | < 500 nM | COc1ccc2c(=O)n(C)cc(-c3cc(S(O)(O)C(C)C)ccc3OCC3CC3)c2c1 [US10941160, Example 393]
58 | < 500 nM | Cc1cc(-c2cc(S(O)(O)C(C)C)ccc2OCC2CC2)cn(C)c1=O [US10941160, Example 394]
59 | < 500 nM | CCS(O)(O)Nc1cc(OCc2ccccc2)cc(-c2cc(C)c(=O)n(C)c2)c1 [US10941160, Example 395]
60 | < 500 nM | CCS(O)(O)c1ccc(Nc2ccc(F)cc2F)c(-c2cc(C)c(=O)n(C)c2)c1 [US10941160, Example 396]
61 | < 500 nM | CCS(O)(O)c1ccc(NC2CCC(F)(F)CC2)c(-c2cc(C)c(=O)n(C)c2)c1 [US10941160, Example 397]
62 | < 500 nM | CCS(O)(O)c1ccc(OCC2CC2)c(-c2cc(OC)c(=O)n(C)c2)c1 [US10941160, Example 399]
63 | < 500 nM | CCS(O)(O)c1ccc(NCC2CC2)c(-c2cc(NC)c(=O)n(C)c2)c1 [US10941160, Example 408]
64 | < 500 nM | CCS(O)(O)c1ccc(OCC2CC2)c(-c2cc(NC)c(=O)n(C)c2)c1 [US10941160, Example 409]
65 | < 500 nM | CCS(O)(O)Cc1ccc(OCC(F)(F)F)c(-c2cc(C)c(=O)n(C)c2)c1 [US10941160, Example 411]
66 | < 500 nM | CCS(O)(O)c1ccc(NCC2CC2)c(-c2cc(OC)c(=O)n(C)c2)c1 [US10941160, Example 414]
